From ChEMBL document CHEMBL1146548, “New anthracene derivatives from Coussarea macrophylla” (J Nat Prod, 2003) come the findings set out here.

One series relates to Staphylococcus aureus. Briefly: Antibacterial activity against Staphylococcus aureus at 19 ug/disk by standard filter disk assay. It is filed as functional. The note with it: read-out: IZ.
The test system of another series is Artemia salina. The series is described as follows: Toxicity against Artemia salina. It is filed as organism-based. The note with it: in vivo.

By LC50 is commonly meant the concentration lethal to half of the exposed cells or organisms. Lower therefore signals a more lethal substance.

SMILES strings stand for the structures.

For the compound `COc1c(C=O)cc(OC)c2c(OC)c3ccccc3cc12`, the zone of inhibition at 19 µg/disc in the series on Staphylococcus aureus stood at 12 mm. In the series on Artemia salina, this compound had an LC50 of more than 280 ppm.

In turn, `COCc1c(OC)cc2c(c1OC)C(=O)c1ccccc1C2=O` returned a 50% lethal concentration (LC50) in the series on Artemia salina of more than 280 ppm.
